Data taken from ChEMBL document CHEMBL1765075, “Discovery and structure-activity relationship of 3-aminopyrid-2-ones as potent and selective interleukin-2 inducible T-cell kinase (Itk) inhibitors” (J Med Chem, 2011).

Experiments:
[1] = biological target: T1, Receptor-type tyrosine-protein kinase FLT3 (Homo sapiens, UniProt P36888); experiment: Inhibition of Flt3 after 20 mins by radiometric phosphate incorporation assay
T1 sequence (P36888 whole entry): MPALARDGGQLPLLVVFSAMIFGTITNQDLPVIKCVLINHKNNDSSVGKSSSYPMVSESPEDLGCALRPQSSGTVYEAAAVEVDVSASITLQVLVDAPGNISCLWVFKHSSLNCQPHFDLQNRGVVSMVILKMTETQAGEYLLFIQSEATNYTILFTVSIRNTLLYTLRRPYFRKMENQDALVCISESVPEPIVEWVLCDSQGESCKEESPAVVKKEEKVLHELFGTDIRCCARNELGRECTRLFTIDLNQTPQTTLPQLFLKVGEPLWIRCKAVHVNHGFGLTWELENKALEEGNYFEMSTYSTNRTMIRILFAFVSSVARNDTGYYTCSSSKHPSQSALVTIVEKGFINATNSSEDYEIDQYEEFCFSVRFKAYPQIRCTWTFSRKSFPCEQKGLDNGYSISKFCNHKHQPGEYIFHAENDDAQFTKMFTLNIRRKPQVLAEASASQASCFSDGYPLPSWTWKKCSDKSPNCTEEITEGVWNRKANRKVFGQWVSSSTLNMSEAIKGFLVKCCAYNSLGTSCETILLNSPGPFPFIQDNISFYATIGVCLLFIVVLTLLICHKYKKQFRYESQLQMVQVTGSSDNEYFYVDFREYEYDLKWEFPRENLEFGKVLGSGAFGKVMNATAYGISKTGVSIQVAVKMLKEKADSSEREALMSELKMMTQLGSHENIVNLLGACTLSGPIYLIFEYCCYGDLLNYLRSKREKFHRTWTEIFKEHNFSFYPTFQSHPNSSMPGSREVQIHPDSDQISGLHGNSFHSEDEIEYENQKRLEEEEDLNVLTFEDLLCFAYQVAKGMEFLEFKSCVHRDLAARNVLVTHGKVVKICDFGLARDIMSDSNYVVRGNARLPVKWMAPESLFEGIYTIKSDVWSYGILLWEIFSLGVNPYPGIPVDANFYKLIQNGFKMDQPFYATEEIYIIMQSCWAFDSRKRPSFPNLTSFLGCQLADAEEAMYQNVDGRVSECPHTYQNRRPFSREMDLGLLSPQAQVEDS

[2] = biological target: T2, Proto-oncogene tyrosine-protein kinase Src (Homo sapiens, UniProt P12931); experiment: Inhibition of Src after 10 mins by radiometric phosphate incorporation assay
[3] = Octanol-phosphate buffer partition coefficient, log D of the compound at pH 7.4 by HPLC analysis; type: physicochemical
[4] = biological target: Mitogen-activated protein kinase 1 (Homo sapiens, UniProt P28482); experiment: Inhibition of ERK2
[5] = biological target: Tyrosine-protein kinase Fyn (Homo sapiens, UniProt P06241); experiment: Inhibition of FYN
[6] = Inhibition of RLK
[7] = biological target: RAC-alpha serine/threonine-protein kinase (Homo sapiens, UniProt P31749); experiment: Inhibition of AKT1
Aurora kinase A = Aurora kinase A (Homo sapiens, UniProt O14965); experiment: Inhibition of AURORA A
[8] = biological target: Cytoplasmic tyrosine-protein kinase BMX (Homo sapiens, UniProt P51813); experiment: Inhibition of BMX
[9] = biological target: Calcium/calmodulin-dependent protein kinase type IV (Homo sapiens, UniProt Q16566); experiment: Inhibition of CAMK4
[10] = biological target: Cyclin-dependent kinase 1 (Homo sapiens, UniProt P06493); experiment: Inhibition of CDK1
Ceramide kinase = Ceramide kinase (Homo sapiens, UniProt Q8TCT0); experiment: Inhibition of CERK
Ephrin type-B receptor 2 = Ephrin type-B receptor 2 (Homo sapiens, UniProt P29323); experiment: Inhibition of EPHB2
Focal adhesion kinase 1 = Focal adhesion kinase 1 (Homo sapiens, UniProt Q05397); experiment: Inhibition of FAK
[11] = biological target: Tyrosine-protein kinase Fes/Fps (Homo sapiens, UniProt P07332); experiment: Inhibition of FES
[12] = biological target: Fibroblast growth factor receptor 4 (Homo sapiens, UniProt P22455); experiment: Inhibition of FGFR4
[13] = biological target: T1, Receptor-type tyrosine-protein kinase FLT3; experiment: Inhibition of FLT3
[14] = biological target: Interleukin-1 receptor-associated kinase 4 (Homo sapiens, UniProt Q9NWZ3); experiment: Inhibition of IRAK4
[15] = biological target: Mast/stem cell growth factor receptor Kit (Homo sapiens, UniProt P10721); experiment: Inhibition of KIT
[16] = biological target: Dual specificity mitogen-activated protein kinase kinase 6 (Homo sapiens, UniProt P52564); experiment: Inhibition of MKK6
[17] = biological target: Ribosomal protein S6 kinase alpha-5 (Homo sapiens, UniProt O75582); experiment: Inhibition of MSK1
[18] = biological target: Serine/threonine-protein kinase Nek1 (Homo sapiens, UniProt Q96PY6); experiment: Inhibition of NEK1
[19] = biological target: Mitogen-activated protein kinase 14 (Homo sapiens, UniProt Q16539); experiment: Inhibition of P38alpha
[20] = biological target: Mitogen-activated protein kinase 11 (Homo sapiens, UniProt Q15759); experiment: Inhibition of P38beta
[21] = biological target: Ribosomal protein S6 kinase beta-1 (Homo sapiens, UniProt P23443); experiment: Inhibition of P70S6K1
[22] = biological target: MAP kinase-activated protein kinase 5 (Homo sapiens, UniProt Q8IW41); experiment: Inhibition of PRAK
[23] = biological target: Serine/threonine-protein kinase N2 (Homo sapiens, UniProt Q16513); experiment: Inhibition of PRK2
[24] = biological target: Proto-oncogene tyrosine-protein kinase receptor Ret (Homo sapiens, UniProt P07949); experiment: Inhibition of RET
[25] = biological target: T2, Proto-oncogene tyrosine-protein kinase Src; experiment: Inhibition of SRC
Angiopoietin-1 receptor = Angiopoietin-1 receptor (Homo sapiens, UniProt Q02763); experiment: Inhibition of TIE2
[26] = biological target: Tyrosine-protein kinase Yes (Homo sapiens, UniProt P07947); experiment: Inhibition of YES
[27] = biological target: Death-associated protein kinase 3 (Homo sapiens, UniProt O43293); experiment: Inhibition of ZIPK

T2 sequence (P12931 2-536 limits assumed): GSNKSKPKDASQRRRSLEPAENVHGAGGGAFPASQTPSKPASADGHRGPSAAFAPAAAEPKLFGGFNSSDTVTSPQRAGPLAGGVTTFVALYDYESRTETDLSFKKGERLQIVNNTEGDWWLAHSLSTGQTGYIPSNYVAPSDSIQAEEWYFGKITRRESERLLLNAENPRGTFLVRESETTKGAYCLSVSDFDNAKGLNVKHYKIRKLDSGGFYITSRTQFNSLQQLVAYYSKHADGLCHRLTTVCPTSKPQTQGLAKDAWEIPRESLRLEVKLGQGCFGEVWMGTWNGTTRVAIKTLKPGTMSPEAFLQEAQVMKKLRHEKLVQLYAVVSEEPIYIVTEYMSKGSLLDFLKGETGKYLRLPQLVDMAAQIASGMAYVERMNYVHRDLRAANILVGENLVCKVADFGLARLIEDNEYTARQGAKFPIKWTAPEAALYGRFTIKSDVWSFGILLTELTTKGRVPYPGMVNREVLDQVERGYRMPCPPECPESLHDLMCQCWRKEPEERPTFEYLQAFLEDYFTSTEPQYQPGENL
Chain of Angiopoietin-1 receptor (Q02763 whole entry): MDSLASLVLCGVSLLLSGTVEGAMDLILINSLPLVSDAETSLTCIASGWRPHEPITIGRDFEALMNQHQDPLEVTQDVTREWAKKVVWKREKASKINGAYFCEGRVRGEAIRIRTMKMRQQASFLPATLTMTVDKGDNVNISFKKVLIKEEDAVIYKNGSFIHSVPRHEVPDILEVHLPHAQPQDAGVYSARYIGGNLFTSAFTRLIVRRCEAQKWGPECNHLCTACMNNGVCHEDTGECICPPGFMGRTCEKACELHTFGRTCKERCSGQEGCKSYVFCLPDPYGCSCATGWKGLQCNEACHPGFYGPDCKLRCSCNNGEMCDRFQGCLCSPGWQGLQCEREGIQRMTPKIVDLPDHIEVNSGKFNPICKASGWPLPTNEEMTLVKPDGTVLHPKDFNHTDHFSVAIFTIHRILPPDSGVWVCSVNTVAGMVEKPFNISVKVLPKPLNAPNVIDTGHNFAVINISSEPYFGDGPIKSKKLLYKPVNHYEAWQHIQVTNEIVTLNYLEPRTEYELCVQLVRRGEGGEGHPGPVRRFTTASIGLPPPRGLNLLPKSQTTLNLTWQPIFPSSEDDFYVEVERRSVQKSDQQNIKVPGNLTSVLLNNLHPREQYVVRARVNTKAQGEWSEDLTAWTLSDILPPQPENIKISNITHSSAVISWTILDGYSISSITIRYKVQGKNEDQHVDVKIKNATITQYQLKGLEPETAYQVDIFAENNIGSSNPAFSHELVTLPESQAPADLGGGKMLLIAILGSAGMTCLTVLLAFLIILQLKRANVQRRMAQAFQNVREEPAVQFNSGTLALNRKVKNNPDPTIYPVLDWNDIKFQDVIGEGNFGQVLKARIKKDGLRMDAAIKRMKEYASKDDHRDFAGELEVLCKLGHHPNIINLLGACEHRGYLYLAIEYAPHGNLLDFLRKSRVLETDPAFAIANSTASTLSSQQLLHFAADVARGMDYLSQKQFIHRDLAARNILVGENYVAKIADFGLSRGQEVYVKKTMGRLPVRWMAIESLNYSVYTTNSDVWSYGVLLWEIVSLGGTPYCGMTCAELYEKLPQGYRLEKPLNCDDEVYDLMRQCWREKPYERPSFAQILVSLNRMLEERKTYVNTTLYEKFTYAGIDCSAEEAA
Chain of Serine/threonine-protein kinase Nek1 (Q96PY6 whole entry): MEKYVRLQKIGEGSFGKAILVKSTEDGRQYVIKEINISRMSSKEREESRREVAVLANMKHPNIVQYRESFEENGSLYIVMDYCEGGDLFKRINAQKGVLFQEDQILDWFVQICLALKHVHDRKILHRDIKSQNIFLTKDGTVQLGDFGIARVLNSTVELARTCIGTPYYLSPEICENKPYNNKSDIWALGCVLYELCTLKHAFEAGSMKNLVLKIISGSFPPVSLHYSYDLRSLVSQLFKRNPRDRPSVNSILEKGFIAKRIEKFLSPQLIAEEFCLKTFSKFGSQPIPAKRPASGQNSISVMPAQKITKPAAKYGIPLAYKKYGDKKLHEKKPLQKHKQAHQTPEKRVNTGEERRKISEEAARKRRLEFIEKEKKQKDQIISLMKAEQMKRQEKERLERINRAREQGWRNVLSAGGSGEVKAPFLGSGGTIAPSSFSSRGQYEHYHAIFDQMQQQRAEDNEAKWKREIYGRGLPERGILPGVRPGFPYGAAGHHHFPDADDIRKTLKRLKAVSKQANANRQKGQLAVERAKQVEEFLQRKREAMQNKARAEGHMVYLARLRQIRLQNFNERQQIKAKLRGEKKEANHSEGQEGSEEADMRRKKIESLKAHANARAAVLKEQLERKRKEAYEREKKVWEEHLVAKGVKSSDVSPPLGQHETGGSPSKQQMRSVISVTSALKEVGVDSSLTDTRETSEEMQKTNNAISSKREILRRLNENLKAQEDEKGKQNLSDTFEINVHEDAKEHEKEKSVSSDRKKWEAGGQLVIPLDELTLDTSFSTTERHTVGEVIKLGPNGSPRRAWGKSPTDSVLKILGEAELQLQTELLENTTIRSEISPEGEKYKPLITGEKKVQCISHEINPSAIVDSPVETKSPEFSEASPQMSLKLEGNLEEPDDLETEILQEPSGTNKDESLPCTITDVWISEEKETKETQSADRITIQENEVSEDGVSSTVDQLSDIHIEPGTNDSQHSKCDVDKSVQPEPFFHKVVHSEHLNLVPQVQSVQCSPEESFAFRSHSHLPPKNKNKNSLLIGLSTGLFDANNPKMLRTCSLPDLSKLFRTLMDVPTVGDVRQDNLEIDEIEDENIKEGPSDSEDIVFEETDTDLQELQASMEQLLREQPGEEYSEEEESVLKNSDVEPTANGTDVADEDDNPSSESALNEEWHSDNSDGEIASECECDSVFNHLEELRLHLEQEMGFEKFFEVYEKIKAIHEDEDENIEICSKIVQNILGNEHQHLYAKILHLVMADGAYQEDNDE
Chain of Mitogen-activated protein kinase 11 (Q15759 whole entry): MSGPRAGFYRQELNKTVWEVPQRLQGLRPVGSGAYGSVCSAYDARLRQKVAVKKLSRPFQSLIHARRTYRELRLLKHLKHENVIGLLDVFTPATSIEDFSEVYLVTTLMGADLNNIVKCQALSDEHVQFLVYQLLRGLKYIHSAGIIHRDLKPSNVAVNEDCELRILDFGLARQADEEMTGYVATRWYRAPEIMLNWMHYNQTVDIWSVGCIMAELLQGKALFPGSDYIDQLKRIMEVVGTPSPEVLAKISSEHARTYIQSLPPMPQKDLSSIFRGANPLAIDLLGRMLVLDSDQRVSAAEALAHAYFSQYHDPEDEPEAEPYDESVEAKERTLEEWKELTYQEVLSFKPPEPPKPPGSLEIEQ
Chain of Proto-oncogene tyrosine-protein kinase receptor Ret (P07949 whole entry): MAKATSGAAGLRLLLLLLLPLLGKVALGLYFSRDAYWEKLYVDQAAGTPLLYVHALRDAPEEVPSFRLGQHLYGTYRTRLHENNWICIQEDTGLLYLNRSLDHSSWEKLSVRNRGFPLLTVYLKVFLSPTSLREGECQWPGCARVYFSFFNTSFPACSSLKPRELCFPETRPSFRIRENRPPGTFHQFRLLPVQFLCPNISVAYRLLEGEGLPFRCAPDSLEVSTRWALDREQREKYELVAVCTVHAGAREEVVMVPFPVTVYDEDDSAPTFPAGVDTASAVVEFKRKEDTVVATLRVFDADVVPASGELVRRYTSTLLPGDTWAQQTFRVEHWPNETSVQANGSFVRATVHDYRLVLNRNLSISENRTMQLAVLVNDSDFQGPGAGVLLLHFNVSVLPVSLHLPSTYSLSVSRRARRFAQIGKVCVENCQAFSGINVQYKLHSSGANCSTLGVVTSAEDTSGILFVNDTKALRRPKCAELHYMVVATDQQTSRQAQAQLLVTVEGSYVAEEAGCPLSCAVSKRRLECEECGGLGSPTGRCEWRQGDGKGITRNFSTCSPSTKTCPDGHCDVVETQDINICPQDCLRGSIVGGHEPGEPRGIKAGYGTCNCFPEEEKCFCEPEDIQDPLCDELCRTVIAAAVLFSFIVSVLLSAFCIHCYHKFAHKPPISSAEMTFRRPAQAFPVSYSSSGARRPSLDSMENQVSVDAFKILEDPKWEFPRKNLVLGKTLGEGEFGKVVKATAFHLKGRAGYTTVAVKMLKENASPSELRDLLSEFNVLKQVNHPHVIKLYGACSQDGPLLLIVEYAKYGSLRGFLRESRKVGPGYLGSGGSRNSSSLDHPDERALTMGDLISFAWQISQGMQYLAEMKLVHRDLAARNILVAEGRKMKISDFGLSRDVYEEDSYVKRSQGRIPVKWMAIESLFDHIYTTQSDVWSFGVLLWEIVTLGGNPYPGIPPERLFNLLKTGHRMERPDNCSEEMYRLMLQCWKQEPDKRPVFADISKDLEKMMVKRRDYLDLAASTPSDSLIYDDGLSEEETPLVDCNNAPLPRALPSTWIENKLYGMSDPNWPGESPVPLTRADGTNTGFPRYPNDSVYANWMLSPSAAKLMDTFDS
Chain of Tyrosine-protein kinase Yes (P07947 whole entry): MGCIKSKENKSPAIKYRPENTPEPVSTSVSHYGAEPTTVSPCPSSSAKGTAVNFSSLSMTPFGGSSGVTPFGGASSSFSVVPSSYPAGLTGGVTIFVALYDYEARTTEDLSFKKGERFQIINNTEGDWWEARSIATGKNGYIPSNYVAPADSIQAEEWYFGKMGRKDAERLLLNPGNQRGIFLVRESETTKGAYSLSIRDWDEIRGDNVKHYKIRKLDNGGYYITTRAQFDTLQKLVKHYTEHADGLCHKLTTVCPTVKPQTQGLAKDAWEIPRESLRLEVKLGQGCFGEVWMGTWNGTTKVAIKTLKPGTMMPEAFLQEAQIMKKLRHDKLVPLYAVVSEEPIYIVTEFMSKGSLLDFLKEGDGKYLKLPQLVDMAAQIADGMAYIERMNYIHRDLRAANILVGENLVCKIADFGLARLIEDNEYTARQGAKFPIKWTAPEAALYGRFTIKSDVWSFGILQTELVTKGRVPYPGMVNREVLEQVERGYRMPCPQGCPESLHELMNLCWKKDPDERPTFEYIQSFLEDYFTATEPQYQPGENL

Ki [1]: 20 nM
Ki [2]: 120 nM
logD [3]: 2.8
Ki [4]: > 2000 nM
Ki [5]: > 1000 nM
Ki [6]: > 2000 nM
Ki [7]: > 1000 nM
Ki (Aurora kinase A): > 1000 nM
Ki [8]: > 1000 nM
Ki [9]: > 1000 nM
Ki [10]: > 1000 nM
Ki (Ceramide kinase): > 1000 nM
Ki (Ephrin type-B receptor 2): > 1000 nM
Ki (Focal adhesion kinase 1): > 1000 nM
Ki [11]: > 1000 nM
Ki [12]: > 1000 nM
Ki [13]: 20 nM
Ki [14]: > 1000 nM
Ki [15]: 200 nM
Ki [16]: > 1000 nM
Ki [17]: > 1000 nM
Ki [18]: > 1000 nM
Ki [19]: > 1000 nM
Ki [20]: > 1000 nM
Ki [21]: > 1000 nM
Ki [22]: > 1000 nM
Ki [23]: > 1000 nM
Ki [24]: > 1000 nM
Ki [25]: 120 nM
Ki (Angiopoietin-1 receptor): > 1000 nM
Ki [26]: > 1000 nM
SMILES: CNc1cncc(-c2c[nH]c(=O)c(NC(=O)c3ccc(N4CCC[C@H]4CN4CCCC4)cc3)c2)n1
Ki [27]: > 1000 nM
